# Where two headings read alike, the source gives them in different places.
# How the values were obtained:
# [1] = system: HBV in primary human hepatocytes (PHH); assay: Cryopreserved primary human hepatocytes (PHH) HBV infection assay; assay type: cell-based; settings: HBV-infected cryopreserved PHH, 9 days post-compound treatment, extracellular HBsAg by CLIA, read-out: HBsAg IC50
# Procedure: This assay is used to confirm the anti-HBV effect of the compounds in HBV PHH infection assay. Cryopreserved PHH (BioreclamationIVT, Lot YJM) was thawed at 37° C. and gently transferred into pre-warmed InVitroGRO HT medium (BioreclamationIVT, Cat. S03317). The mixture was centrifuged at 70 relative centrifugal force (RCF) for 3 minutes at RT, and the supernatant was discarded. Pre-warmed InVitroGRO CP medium (BioreclamationIVT, Cat #S03316) was added to the cell pellet to gently re-suspend cells. The cells were seeded at the density of 5.8×10^4 cells per well to collagen I coated 96-well plate (Gibco, Cat. A1142803) with the InVitroGRO CP medium. All plates were incubated at 37° C. with 5% CO2 and 85% humidity.
# At 20 hours after plating, the medium was changed to PHH culture medium (Dulbecco's Modified Eagle Medium (DMEM)/F12 (1:1) (Gibco, Cat. 11320-033), 10% fetal bovine serum (Gibco Cat. 10099141), 100 U/mL penicillin, 100 μg/mL streptomycin (Gibco, Cat. 151401-122), 5 ng/mL human epidermal growth factor (Invitrogen Cat. PHG0311L), 20 ng/mL dexamethasone (Sigma, Cat. D4902) and 250 ng/mL human recombinant insulin (Gibco, Cat. 12585-014)). And the cells were incubated at 37° C. with 5% CO2 and 85% humidity for 4 hours. The medium was then changed to pre-warmed PHH culture medium containing 4% polyethylene glycol (PEG) MW8000 (Sigma, Cat. P1458-50ML) and 1% DMSO (Sigma, Cat. D2650). 5.8×10^6 genomic equivalents of HBV were added into the medium.
# At 24 hours post-infection, the cells were gently washed with PBS and refreshed with PHH culture medium supplemented with 1% DMSO, and 0.25 mg/mL Matrix gel (Corning, Cat. 356237) at 200 μL per well. All plates were immediately placed in at 37° C. CO2 incubator.
# 24 hours later, serial dilutions of compounds made with DMSO were further diluted with the same culture medium (PHH culture medium supplemented with 1% DMSO and 0.25 mg/mL Matrix gel as described above) before they were added to the cells to reach desired final compound concentrations and 1% DMSO concentration. The medium containing the compounds were refreshed every three days.
# At 9 days post-compound treatment, extracellular HBsAg level were measured with Chemiluminescence Immuno Assay (CLIA) kit (Autobio, HBsAg Quantitative CLIA). Extracellular HBV DNA was extracted by MagNA Pure 96 system (Roche) and then determined by quantitative PCR with the following primers and probe: […]
# HBsAg IC50 and HBV DNA IC50 values were derived from the dose-response curve using 4 parameter logistic curve fit method. The compounds of formula (I) have HBsAg IC50<20 μM, particularly <1 μM; and HBV DNA IC50<50 μM. Test results of the compounds of this invention as well as the reference compounds in Cryopreserved PHH assay are given in Table 2 and Table 3.
# [2] = system: HBeAg level (surrogate marker for cccDNA) in HepDES19 cells; assay: Engineered HepDES19 primary screen assay (HBeAg as surrogate marker for cccDNA); assay type: cell-based, HBV
# Description: The assay was employed to screen for novel cccDNA inhibitors. HepDES19 is a cccDNA-producing cell line. In this cell line, HBeAg in the cell culture supernatant as surrogate marker, as HBeAg production depends on cccDNA level and activity. HepDES19 is an engineered cell line which contains a 1.1 unit length HBV genome, and pgRNA transcription from the transgene is controlled by Tetracycline (Tet). In the absence of Tet, pgRNA transcription will be induced, but HBV e antigen (HBeAg) could not be produced from this pgRNA due to very short leader sequence before the HBeAg start codon and the start codon is disrupted. Only after cccDNA is formed, the missing leader sequence and start codon mutation would be restored from the 3′-terminal redundancy of pgRNA, and then HBeAg could be synthesized. Therefore, HBeAg could be used as a surrogate marker for cccDNA (Zhou, T. et al., Antiviral Res. (2006), 72(2), 116-124; Guo, H. et al., J. Virol. (2007), 81(22), 12472-12484).
# HepDES19 cells were seeded at 2×10^6 cells per T150 flask and cultured with the culture medium (Dulbecco's Modified Eagle Medium: Nutrient Mixture F-12 [DMEM-F12, Gibco Cat. 11320-82], 10% Fetal Bovine Serum [FBS, Clontech Cat. 631101], 0.1 mM Non-Essential Amino Acids Solution [NEAA, Gibco Cat. 11140-050], 50 μg/mL Penicillin-Streptomycin [PS, Invitrogen Cat. 15140-163], 500 μg/mL Geneticin [G418, Invitrogen Cat. 10131-027]) containing 3 μg/mL Tet (Sigma, Cat. 87128) for 5 days. Cells were then seeded at 4×10^6 cells per T150 in the same culture medium as described above in the absence of Tet for 8 days. Cells were then harvested and frozen at density of 2×10^6 cells per mL. For compound testing, the frozen cells were thawed and seeded into 96-well plates at a density of 6×10^4 cells per well. At 24 hrs after seeding, half log serial dilutions of compounds made with Dimethyl sulfoxide (DMSO, Sigma, Cat. D2650) were further diluted with the same culture medium as described above before they were added to the cells to reach desired final compound concentrations and 1% DMSO concentration. Plates were then incubated at 37° C. for another 5 days before measurement of HBeAg level and cell viability. Intracellular HBeAg level were measured with enzyme-linked immunosorbent assay (ELISA) kit (Shanghai Kehua Diagnostic Medical Products Co., Ltd). Cell viability was assessed using Cell Counting Kit-8 (Donjindo, Cat. CK04-20). IC50 values were derived from the dose-response curve using 4 parameter logistic curve fit method.
# The compounds of the present invention were tested for their capacity to inhibit extracellular HBeAg level as described herein.
# [3] = Hepatitis B virus, Hepatocyte, 216 h
# [4] = Hepatitis B virus, HepDES19, 120 h, read-out: IC50 (HBeAg) in HepDES19 primary screen assay, HepDES19 cells, 5 days incubation with compound, HBeAg by ELISA
# [5] = read-out: IC50 (HBeAg) in HepDES19 primary screen assay, HepDES19 cells, 5 days incubation with compound, HBeAg by ELISA
SMILES,"IC50 [1, 3] [nM]","IC50 [2, 4] [nM]",IC50 [1] [nM],"IC50 [2, 5] [nM]"
"COc1ccc(Cl)c2oc(-c3ccc(OCCO[C@H]4C[C@@H](C(=O)O)C4)cc3)cc(=O)c12 [Example 25, Cis-3-[2-[4-(8-chloro-5-methoxy-4-oxo-chromen-2-yl)phenoxy]ethoxy]cyclobutanecarboxylic acid]",930,1050,–,–
"COc1ccc2c(=O)cc(-c3ccc(OCCOC4CC(C(=O)O)C4)cc3)oc2c1Cl (centres unmarked) [Example 19, 3-[2-[4-(8-chloro-7-methoxy-4-oxo-chromen-2-yl)phenoxy]ethoxy]cyclobutanecarboxylic acid]",1510,22200,–,–
"O=c1c(O)c(-c2ccc(OCCO[C@H]3C[C@@H](C(=O)O)C3)cc2)oc2c(Cl)cccc12 [Example 55, Cis-3-[2-[4-(8-chloro-3-hydroxy-4-oxo-chromen-2-yl)phenoxy]ethoxy]cyclobutanecarboxylic acid]",9500,120,–,–
"CC(COc1ccc(-c2cc(=O)c3cccc(Cl)c3o2)cc1)OC1CC(C(=O)O)C1 (centres unmarked) [Example 12, 3-[2-[4-(8-chloro-4-oxo-chromen-2-yl)phenoxy]-1-methyl-ethoxy]cyclobutanecarboxylic acid]",210,1070,–,–
"N#Cc1ccc2c(=O)cc(-c3ccc(OCCOC4CC(C(=O)O)C4)cc3)oc2c1Cl (centres unmarked) [Example 23, 3-[2-[4-(8-chloro-7-cyano-4-oxo-chromen-2-yl)phenoxy]ethoxy]cyclobutanecarboxylic acid]",7110,21100,–,–
"N#Cc1cc(-c2cc(=O)c3cccc(Cl)c3o2)ccc1OCCOC1CC(C(=O)O)C1 (centres unmarked) [Example 46, 3-[2-[4-(8-chloro-4-oxo-chromen-2-yl)-2-cyano-phenoxy]ethoxy]cyclobutanecarboxylic acid]",130,16000,–,–
"O=C(O)C1CC(OCCOc2ccc(-c3cc(=O)c4cccc(Cl)c4s3)cc2)C1 (centres unmarked) [Example 57, 3-[2-[4-(8-chloro-4-oxo-thiochromen-2-yl)phenoxy]ethoxy]cyclobutanecarboxylic acid]",140,90,–,–
"O=C(O)C1CC(OCCOc2ccc(-c3oc4c(Cl)cccc4c(=O)c3Cl)cc2)C1 (centres unmarked) [Example 53, 3-[2-[4-(3,8-dichloro-4-oxo-chromen-2-yl)phenoxy]ethoxy]cyclobutanecarboxylic acid]",4010,22000,–,–
"O=c1cc(-c2ccc(OCCO[C@H]3C[C@@H](C(=O)O)C3)cc2)oc2c(Cl)ccc(C3CC3)c12 [Example 30, Cis-3-[2-[4-(8-chloro-5-cyclopropyl-4-oxo-chromen-2-yl)phenoxy]ethoxy]cyclobutanecarboxylic acid]",7290,130,–,–
"O=c1cc(-c2ccc(OCCO[C@H]3C[C@@H](C(=O)O)C3)cc2)oc2c(Cl)ccc(O)c12 [Example 24, Cis-3-[2-[4-(8-chloro-5-hydroxy-4-oxo-chromen-2-yl)phenoxy]ethoxy]cyclobutanecarboxylic acid]",4830,1140,–,–
"O=c1cc(-c2ccc(OCCO[C@H]3C[C@@H](C(=O)O)C3)nc2)oc2c(Cl)cccc12 (single isomer, unassigned) [Example 38-B, 3-[2-[[5-(8-chloro-4-oxo-chromen-2-yl)-2-pyridyl]oxy]ethoxy]cyclobutanecarboxylic acid]",–,–,880,760
"O=C(O)C1CC(OCCOc2ccc(-c3cc(=O)c4ccc(C5CC5)c(Cl)c4o3)cc2)C1 (single isomer, unassigned) [Example 70-B, 3-[2-[4-(8-chloro-7-cyclopropyl-4-oxo-chromen-2-yl)phenoxy]ethoxy]cyclobutanecarboxylic acid]",4790,–,–,2140
"O=c1cc(-c2ccc(OCCO[C@H]3C[C@@H](C(=O)O)C3)nc2)oc2c(Cl)cccc12 (single isomer, unassigned) [Example 38-A, 3-[2-[[5-(8-chloro-4-oxo-chromen-2-yl)-2-pyridyl]oxy]ethoxy]cyclobutanecarboxylic acid]",460,–,–,5290

# Reference: patent US12012390B2, “Flavone compounds for the treatment and prophylaxis of hepatitis B virus disease” (priority 2018, dated 2024)
